Data published in the Kinase Knowledgebase extract (Sharma et al. 2016).

Columns and labels:
PIK3CD (Human) [1] = biological target: PIK3CD (Human) (UniProt O00329); test: Assessment of PIK3CD Kinase Activity
PIK3CG (human) = PIK3CG (human) (UniProt P48736); test: Assessment of PIK3CG Kinase Activity
PIK3CB (Human) [2] = biological target: PIK3CB (Human) (UniProt P42338); test: Assessment of PIK3CB Kinase Activity
PIK3CD (Human) [3] = biological target: PIK3CD (Human) (UniProt O00329); test: Assessment of PIK3CD Kinase Activity in RAJI Cells
PIK3CB (Human) [4] = biological target: PIK3CB (Human) (UniProt P42338); test: Assessment of PIK3CB Kinase Activity in 786-O Cells
PIK3CA (human) [5] = biological target: PIK3CA (human) (UniProt P42336); test: Assessment of PIK3CA Kinase Activity
Chain of PIK3CA (human) (P42336 whole entry, looked up): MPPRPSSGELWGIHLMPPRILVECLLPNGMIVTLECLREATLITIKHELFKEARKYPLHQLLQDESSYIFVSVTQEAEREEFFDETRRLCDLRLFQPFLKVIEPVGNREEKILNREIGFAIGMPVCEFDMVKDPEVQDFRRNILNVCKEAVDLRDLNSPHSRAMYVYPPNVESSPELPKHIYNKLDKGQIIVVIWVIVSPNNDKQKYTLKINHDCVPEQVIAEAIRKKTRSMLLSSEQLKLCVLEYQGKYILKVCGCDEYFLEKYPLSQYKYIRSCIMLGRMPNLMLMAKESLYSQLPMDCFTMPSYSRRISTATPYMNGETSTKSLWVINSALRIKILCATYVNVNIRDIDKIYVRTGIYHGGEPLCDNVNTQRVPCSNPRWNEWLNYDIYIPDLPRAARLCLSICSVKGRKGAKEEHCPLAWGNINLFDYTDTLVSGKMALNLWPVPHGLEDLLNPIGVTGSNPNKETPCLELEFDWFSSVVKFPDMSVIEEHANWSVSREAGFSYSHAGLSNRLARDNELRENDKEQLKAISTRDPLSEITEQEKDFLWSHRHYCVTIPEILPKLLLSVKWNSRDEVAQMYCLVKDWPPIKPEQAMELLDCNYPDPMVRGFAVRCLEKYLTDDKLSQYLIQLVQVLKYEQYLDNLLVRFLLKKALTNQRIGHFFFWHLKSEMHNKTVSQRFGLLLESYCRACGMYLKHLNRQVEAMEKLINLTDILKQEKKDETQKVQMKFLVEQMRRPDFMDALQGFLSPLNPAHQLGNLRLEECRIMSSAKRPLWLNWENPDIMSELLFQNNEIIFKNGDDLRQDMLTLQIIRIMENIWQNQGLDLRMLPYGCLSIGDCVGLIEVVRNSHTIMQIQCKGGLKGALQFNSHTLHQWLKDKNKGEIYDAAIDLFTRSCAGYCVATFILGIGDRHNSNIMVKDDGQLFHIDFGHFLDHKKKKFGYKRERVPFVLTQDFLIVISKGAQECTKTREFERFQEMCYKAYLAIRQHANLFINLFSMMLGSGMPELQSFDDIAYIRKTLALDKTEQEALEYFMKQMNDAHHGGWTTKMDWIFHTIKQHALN

PIK3CA (human) [6] = biological target: PIK3CA (human) (UniProt P42336); test: Assessment of PIK3CA Kinase Activity in SKOV-3 Cells

Chain of PIK3CB (Human) (P42338 whole entry, looked up): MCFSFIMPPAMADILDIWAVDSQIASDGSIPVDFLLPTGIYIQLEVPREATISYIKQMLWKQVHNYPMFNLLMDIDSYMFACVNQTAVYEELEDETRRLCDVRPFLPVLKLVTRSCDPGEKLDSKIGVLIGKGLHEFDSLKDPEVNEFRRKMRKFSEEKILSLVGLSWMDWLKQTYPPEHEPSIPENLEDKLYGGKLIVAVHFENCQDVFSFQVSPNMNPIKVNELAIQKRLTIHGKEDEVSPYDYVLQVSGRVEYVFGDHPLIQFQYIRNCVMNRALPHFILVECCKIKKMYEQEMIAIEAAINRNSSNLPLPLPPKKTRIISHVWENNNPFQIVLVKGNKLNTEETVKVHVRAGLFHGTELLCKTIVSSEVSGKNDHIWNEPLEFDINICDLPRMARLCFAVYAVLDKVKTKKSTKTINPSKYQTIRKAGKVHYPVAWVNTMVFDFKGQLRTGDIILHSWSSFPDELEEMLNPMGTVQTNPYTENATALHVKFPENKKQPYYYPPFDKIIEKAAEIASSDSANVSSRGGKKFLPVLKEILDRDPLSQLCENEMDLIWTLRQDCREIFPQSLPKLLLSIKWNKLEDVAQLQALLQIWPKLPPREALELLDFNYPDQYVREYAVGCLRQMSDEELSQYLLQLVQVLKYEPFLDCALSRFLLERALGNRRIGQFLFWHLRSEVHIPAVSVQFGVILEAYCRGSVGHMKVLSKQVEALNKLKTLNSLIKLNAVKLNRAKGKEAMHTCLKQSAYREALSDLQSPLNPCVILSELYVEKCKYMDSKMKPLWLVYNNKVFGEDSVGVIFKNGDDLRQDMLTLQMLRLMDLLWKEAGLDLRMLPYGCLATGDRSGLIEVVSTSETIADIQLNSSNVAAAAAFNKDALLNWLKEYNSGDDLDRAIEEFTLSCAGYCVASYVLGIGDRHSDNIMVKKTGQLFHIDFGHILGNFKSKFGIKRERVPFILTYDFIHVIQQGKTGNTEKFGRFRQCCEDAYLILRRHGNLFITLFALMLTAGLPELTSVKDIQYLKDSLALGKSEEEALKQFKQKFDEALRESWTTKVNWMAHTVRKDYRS
Chain of PIK3CD (Human) (O00329 whole entry, looked up): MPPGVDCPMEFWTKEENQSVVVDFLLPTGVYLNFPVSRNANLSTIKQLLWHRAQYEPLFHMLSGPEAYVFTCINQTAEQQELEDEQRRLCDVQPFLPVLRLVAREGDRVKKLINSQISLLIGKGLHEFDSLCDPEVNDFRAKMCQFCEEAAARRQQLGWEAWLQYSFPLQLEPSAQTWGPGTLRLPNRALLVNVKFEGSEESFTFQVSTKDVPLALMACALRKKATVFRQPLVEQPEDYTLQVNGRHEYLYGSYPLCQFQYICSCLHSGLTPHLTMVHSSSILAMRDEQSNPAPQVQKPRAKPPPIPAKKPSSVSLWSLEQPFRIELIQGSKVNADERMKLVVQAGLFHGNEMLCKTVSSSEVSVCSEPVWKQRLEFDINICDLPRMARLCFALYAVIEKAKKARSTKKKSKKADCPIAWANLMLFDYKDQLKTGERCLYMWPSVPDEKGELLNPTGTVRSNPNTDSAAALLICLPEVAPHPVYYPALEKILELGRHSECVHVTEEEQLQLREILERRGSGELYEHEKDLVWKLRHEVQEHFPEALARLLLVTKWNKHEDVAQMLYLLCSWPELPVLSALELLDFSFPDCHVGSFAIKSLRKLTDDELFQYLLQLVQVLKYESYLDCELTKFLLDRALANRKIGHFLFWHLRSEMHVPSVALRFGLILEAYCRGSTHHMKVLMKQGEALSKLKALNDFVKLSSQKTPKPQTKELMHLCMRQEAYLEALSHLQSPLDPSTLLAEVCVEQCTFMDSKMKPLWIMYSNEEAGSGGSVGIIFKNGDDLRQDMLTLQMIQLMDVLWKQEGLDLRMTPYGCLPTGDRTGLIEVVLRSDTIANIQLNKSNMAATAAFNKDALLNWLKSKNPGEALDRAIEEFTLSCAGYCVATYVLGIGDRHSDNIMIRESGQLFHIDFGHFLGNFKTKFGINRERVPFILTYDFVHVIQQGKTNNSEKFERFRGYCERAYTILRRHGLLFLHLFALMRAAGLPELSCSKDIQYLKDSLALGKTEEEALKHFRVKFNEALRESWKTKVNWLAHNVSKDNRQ
Chain of PIK3CG (human) (P48736 whole entry, looked up): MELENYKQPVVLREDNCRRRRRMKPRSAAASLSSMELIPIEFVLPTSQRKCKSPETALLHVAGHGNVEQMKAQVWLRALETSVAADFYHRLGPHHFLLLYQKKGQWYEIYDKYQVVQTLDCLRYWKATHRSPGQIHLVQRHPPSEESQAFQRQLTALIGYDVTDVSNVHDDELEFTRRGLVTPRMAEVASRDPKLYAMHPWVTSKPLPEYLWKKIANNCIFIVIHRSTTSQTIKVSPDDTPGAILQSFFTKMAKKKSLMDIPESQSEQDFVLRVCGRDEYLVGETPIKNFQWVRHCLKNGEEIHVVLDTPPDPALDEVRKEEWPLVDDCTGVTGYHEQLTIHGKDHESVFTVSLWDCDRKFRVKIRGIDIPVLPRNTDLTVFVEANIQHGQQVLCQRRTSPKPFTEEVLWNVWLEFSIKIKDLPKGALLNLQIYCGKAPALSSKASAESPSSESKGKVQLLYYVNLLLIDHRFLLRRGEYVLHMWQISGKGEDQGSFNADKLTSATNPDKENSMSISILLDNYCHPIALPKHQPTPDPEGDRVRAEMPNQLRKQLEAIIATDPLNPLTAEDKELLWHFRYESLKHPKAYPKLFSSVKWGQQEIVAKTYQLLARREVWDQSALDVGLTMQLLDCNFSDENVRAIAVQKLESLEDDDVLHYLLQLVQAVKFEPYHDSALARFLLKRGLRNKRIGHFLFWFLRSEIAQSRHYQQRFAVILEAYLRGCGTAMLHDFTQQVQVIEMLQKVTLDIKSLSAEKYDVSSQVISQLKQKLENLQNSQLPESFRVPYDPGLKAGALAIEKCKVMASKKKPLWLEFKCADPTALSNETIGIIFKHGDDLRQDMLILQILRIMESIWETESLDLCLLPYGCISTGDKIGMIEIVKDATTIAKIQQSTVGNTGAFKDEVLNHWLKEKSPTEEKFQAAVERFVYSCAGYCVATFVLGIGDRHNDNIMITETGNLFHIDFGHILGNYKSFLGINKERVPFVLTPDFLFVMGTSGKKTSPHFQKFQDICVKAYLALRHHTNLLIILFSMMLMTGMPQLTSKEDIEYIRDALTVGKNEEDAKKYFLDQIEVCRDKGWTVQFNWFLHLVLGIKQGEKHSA

SMILES	IC50 (PIK3CD (Human) [1]) [nM]	IC50 (PIK3CG (human)) [nM]	IC50 (PIK3CB (Human) [2]) [nM]	IC50 (PIK3CD (Human) [3]) [nM]	IC50 (PIK3CB (Human) [4]) [nM]	IC50 (PIK3CA (human) [5]) [nM]	IC50 (PIK3CA (human) [6]) [nM]
COc1ncc(-c2cccc3cc([C@H](C)Nc4nc(N)ncc4C#N)n(-c4ccccc4)c(=O)c23)cn1	< 100	< 100	> 10000	< 100	> 10000		
C[C@H](Nc1ncnc(N)c1C#N)c1cc2cccc(Cl)c2c(=O)n1-c1ccon1	100 to 1000	100 to 1000	> 10000	< 100		> 10000	
C[C@H](Nc1nc(N)ncc1-c1ccoc1)c1cc2cccc(Cl)c2c(=O)n1-c1ccccc1	100 to 1000	< 100	> 10000	< 100		> 10000	
CCOc1nc(-c2cnc(N)nc2N[C@@H](C)c2cc3cccc(-c4ccc(=O)n(C)c4)c3c(=O)n2-c2ccccc2)cs1	< 100	< 100		< 100			100 to 1000
C[C@H](Nc1nc(N)ncc1-c1cccc(NS(=O)(=O)N(C)C)c1)c1cc2cccc(Cl)c2c(=O)n1-c1ccccc1	< 100	< 100	100 to 1000	< 100		> 10000	
C[C@H](Nc1nc(N)ncc1-c1cccc(S(=O)(=O)N2CCCCC2)c1)c1cc2cccc(Cl)c2c(=O)n1-c1ccccc1	100 to 1000	< 100	100 to 1000	< 100		100 to 1000	
C=CS(=O)(=O)Nc1cccc(-c2cnc(N)nc2N[C@@H](C)c2cc3cccc(Cl)c3c(=O)n2-c2ccccc2)c1	< 100	< 100	100 to 1000	< 100		100 to 1000	
C[C@H](Nc1nc(N)ncc1C#N)c1cc2cccc(Cl)c2c(C(=O)NC2CCOCC2)n1		> 10000	> 10000	< 100		> 10000	> 10000
CNS(=O)(=O)c1cccc(-c2cnc(N)nc2N[C@@H](C)c2cc3cccc(Cl)c3c(=O)n2-c2ccccc2)c1	100 to 1000	< 100	100 to 1000	< 100			
C[C@H](Nc1nc(N)ncc1-c1cn[nH]c1)c1cc2cccc(Cl)c2c(=O)n1-c1ccccc1	100 to 1000	< 100	> 10000	< 100		> 10000	
COc1ncc(-c2cccc3cc([C@H](C)Nc4ncnc(N)c4C#N)n(-c4ccccc4)c(=O)c23)cn1	< 100	100 to 1000	> 10000	< 100		> 10000	
COc1cc(-c2cccc3cc(CNc4nc(N)ncc4C#N)n(-c4ccccc4)c(=O)c23)ccn1	< 100	100 to 1000	> 10000	< 100		> 10000	
C[C@H](Nc1nc(N)ncc1C#N)c1cc2cccc(Cl)c2c(=O)n1-c1cccc(C#N)c1	< 100	100 to 1000	100 to 1000	< 100			
C[C@H](Nc1ncnc(N)c1C#N)c1cc2cccc(Cl)c2c(C(=O)NC2CCOCC2)n1	100 to 1000		> 10000	< 100		> 10000	
COc1nc(-c2cnc(N)nc2N[C@@H](C)c2cc3cccc(-c4ccc(=O)n(C)c4)c3c(=O)n2-c2ccccc2)cs1	< 100	< 100	> 10000	< 100	> 10000	> 10000	> 10000
C[C@H](Nc1nc(N)ncc1-c1cccc(S(N)(=O)=O)c1)c1cc2cccc(Cl)c2c(=O)n1-c1ccccc1	100 to 1000	< 100	> 10000	< 100			
Cc1ncc(-c2cccc3cc([C@H](C)Nc4ncnc(N)c4C#N)n(-c4ccon4)c(=O)c23)cn1	100 to 1000	> 10000	> 10000	< 100		> 10000	
CC(C)OC(=O)c1cccc(-n2c([C@H](C)Nc3nc(N)ncc3C#N)cc3cccc(Cl)c3c2=O)c1	100 to 1000	100 to 1000	> 10000	< 100		> 10000	

Continued, values first:

IC50 (PIK3CD (Human) [1]) [nM]	IC50 (PIK3CG (human)) [nM]	IC50 (PIK3CB (Human) [2]) [nM]	IC50 (PIK3CD (Human) [3]) [nM]	IC50 (PIK3CB (Human) [4]) [nM]	IC50 (PIK3CA (human) [5]) [nM]	IC50 (PIK3CA (human) [6]) [nM]	SMILES
< 100		> 10000	< 100		> 10000	100 to 1000	Cc1ncc(-c2cccc3cc([C@H](C)Nc4nc(N)ncc4C#N)n(C(C)C)c(=O)c23)cn1
< 100	< 100	100 to 1000	< 100		100 to 1000		C[C@H](Nc1nc(N)ncc1-c1cccc(S(=O)(=O)N(C)C)c1)c1cc2cccc(Cl)c2c(=O)n1-c1ccccc1
< 100		> 10000	< 100		> 10000		Cc1ncc(-c2cccc3cc([C@H](C)Nc4nc(N)ncc4C#N)n(-c4ccon4)c(=O)c23)cn1
< 100	100 to 1000		< 100	100 to 1000			CC(C)n1c([C@H](C)Nc2ncnc(N)c2C#N)cc2cccc(-c3ccc(=O)n(C)c3)c2c1=O
< 100	< 100	< 100	< 100		100 to 1000		CC(=O)c1cnc(N)nc1N[C@@H](C)c1cc2cccc(Cl)c2c(=O)n1-c1ccccc1
100 to 1000		> 10000	< 100		> 10000		COc1ncc(-c2cccc3cc([C@H](C)Nc4nc(N)ncc4C#N)n(-c4ccon4)c(=O)c23)cn1
100 to 1000	< 100	> 10000	< 100		> 10000		C[C@H](Nc1nc(N)ncc1C#N)c1cc2cccc(Cl)c2c(=O)n1-c1cc(F)cc(F)c1
< 100	< 100	> 10000	< 100		> 10000		C[C@H](Nc1nc(N)ncc1-c1cscn1)c1cc2cccc(-c3ccc(=O)n(C)c3)c2c(=O)n1-c1ccccc1
< 100	< 100	> 10000	< 100		> 10000		C[C@H](Nc1nc(N)ncc1-c1cncs1)c1cc2cccc(-c3ccc(=O)n(C)c3)c2c(=O)n1-c1ccccc1
< 100	100 to 1000		< 100	100 to 1000			CC(C)n1c([C@H](C)Nc2nc(N)ncc2C#N)cc2cccc(-c3ccc(=O)n(C)c3)c2c1=O
< 100	< 100	100 to 1000	< 100		> 10000		C[C@H](Nc1nc(N)ncc1-c1cccc(S(=O)(=O)N2CCCC2)c1)c1cc2cccc(Cl)c2c(=O)n1-c1ccccc1
